Results reported in patent US9487500B2, “Compounds and compositions thereof” (Inhibikase Therapeutics, Inc., priority 2012, dated 2016).

Test system: K562 cells
Assay: MTS cell viability assay (K562 cell line)
Assay type: cell-based
Details: Homo sapiens, 48 hr
Description: K562 cells were the first human immortalised myelogenous leukemia line to be established. K562 cells are of the erythroleukemia type, and the line is derived from a CML patient. The cells are non-adherent and rounded, are positive for the bcr:abl fusion gene.
K562 cell line is maintained in RPMI1640 with 10% fetal Bovine Serum. 2500 cells/well of K562 cells were plated in 96 well tissue culture plate. Cells were incubated for 48 hours with serially diluted compound (final concentration from 20 μM-0.002 μM) for 48 hr. MTS (3-(4,5-dimethylthiazol-2-yl)-5-(3-carboxymethoxyphenyl)-2-(4-sulfophenyl)-2H-tetrazolium), obtained from Promega was added to the wells and plates were incubated at […] in 5% CO2 for 4 hrs. The MTS compound is bio-reduced by cells into a colored formazan product that is soluble in tissue culture medium. The quantity of formazan product as measured by the amount of 490 nm absorbance is directly proportional to the number of living cells in culture. The absorbance was read at 490 nm (Spectramax microplate reader). The Percentage inhibition was calculated and plotted against the concentration of inhibitor and data was fit to Non Linear Regression curve fit (sigmoidal dose response curve with variable slope-four parameters) using Graph pad prism 5.

Row | Structure (SMILES) | inhibition at 0.2 µM | inhibition at 2 µM | inhibition at 20 µM
1 | Cc1ccc(NC(=O)c2ccc(CN3CC[N+](C)(COC(=O)N[C@H](C)c4ccccc4)CC3)cc2)cc1Nc1nccc(-c2cccnc2)n1 [Compound 1011, (R)-1-methyl-4-(4-((4-methyl-3-((4-(pyridin-3-yl)pyrimidin-2-yl)amino)phenyl)carbamoyl)benzyl)-1-((((1-phenylethyl)carbamoyl)oxy)methyl)piperazin-1-ium iodide] | 45% | 63% | 70%
2 | CCC(C)(C)OC(=O)OC[N+]1(C)CCN(Cc2ccc(C(=O)Nc3ccc(C)c(Nc4nccc(-c5cccnc5)n4)c3)cc2)CC1 [Compound 1028, 1-methyl-4-(4-(4-methyl-3-(4-(pyridin-3-yl)pyrimidin-2-ylamino)phenylcarbamoyl)benzyl)-1-((tert-pentyloxycarbonyloxy)methyl)piperazin-1-ium iodide] | 40% | 63% | 76%
3 | Cc1ccc(NC(=O)c2ccc(CN3CCN(C)CC3)cc2)cc1Nc1nccc(-c2cccnc2)n1 [imatinib, 4-[(4-methylpiperazin-1-yl)methyl]-N-(4-methyl-3-{[4-(pyridin-3-yl)pyrimidin-2-yl]amino}phenyl)benzamide, reference compound] | 48% | 64% | 67%
